From patent publication US20110224079A1, “SPIROHETEROCYCLIC N-OXYAMIDES AS PESTICIDES” (SYNGENTA CROP PROTECTION LLC, priority 2008, published 2011)

Assays:
[1] = test system: Myzus persicae (green peach aphid); assay: Example B15: drench activity (death rate, persistence) against Myzus persicae on pepper plants in field soil, comparison with A18; assay type: in vivo; details: for Mortality (%) xx days after application (drench, systemic action, persistence): 12.5 ppm drench, pepper plants in field soil, evaluation 7 days after infestation
Method: (§1) Comparison of the Insecticidal Activity and Crop Compatibility of Compounds According to the Invention with a Compound from the State of the Art (Compound No. A18 Described on Page 97 of WO09/049,851)
(§2) (Mixed Population, Drench Application in Field Soil, Persistence, Plant Damage Evaluation)
(§3) Samples are assessed 7 days after infestation on mortality. Treated plants are re-infested 7, 14, 21 and 28 days after application. Evaluation is always done 7 days after infestation. Plants are also checked for damage (phytotoxicity), visual assessment being made using a 0-100% rating scale (100%=total damage to plant; 0%=no damage to plant).

[2] = test system: pepper plants; details: in vivo
Method: as §1, §2, §3

[3] = test system: Plutella xylostella (diamond back moth); assay: Example B5: activity against Plutella xylostella, artificial diet in microtiter plate (larvicide, preventive); assay type: in vivo; details: 120 h, L2 larvae, 5 days, read-out: activity (larval mortality, antifeedant, growth regulation)
Method: Activity Against Plutella xylostella (Diamond Back Moth)
(Larvicide, Feeding/Residual Contact Activity, Preventive)
24-well microtiter plate (MTP) with artificial diet is treated with test solutions by pipetting. After drying, the MTP's are infested with larvae (L2)(10-15 per well). After an incubation period of 5 days, samples are checked for larval mortality, antifeedant and growth regulation.

[4] = test system: Bemisia tabaci (tobacco white fly); assay: Example B7: activity against Bemisia tabaci, sprayed bean plants (larvicide, contact/feeding); assay type: in vivo; details: 504 h, bean plants with N-2 nymphs sprayed, three weeks, read-out: activity (efficacy, number of emerged adults)
Method in brief: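 After a 4-day egg-laying period and 7 further days, bean plants bearing hatched N-2 nymphs were sprayed with test solutions (2 replicates). Emerged adults were counted three weeks later; efficacy was derived by comparison with untreated samples.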

[5] = test system: Aphis Craccivora (cowpea aphid); assay: Example B9: activity against Aphis craccivora, sprayed pea seedlings (contact/feeding); assay type: in vivo; details: 144 h, infested pea seedlings sprayed, 6 days
Text: (§4) Activity Against Aphis Craccivora (Cowpea Aphid)
(Mixed Population, Contact/Feeding)
6 days after treatment, samples are checked for mortality.

[6] = test system: Aphis Craccivora (cowpea aphid); assay: Example B10: activity against Aphis craccivora, pea seedling roots in test solution (systemic/feeding); assay type: in vivo; details: 144 h, roots of infested pea seedlings in test solution, 6 days
Text: as §4
(Mixed Population, Systemic/Feeding)

[7] = test system: Aphis Craccivora (cowpea aphid); assay: Example B11: translaminar activity against Aphis craccivora on French bean leaves; assay type: in vivo; details: 120 h, upper leaf side painted, aphids on lower side, 5 days
Method: Translaminar Activity Against Aphis Craccivora (Cowpea Aphid)
French bean leaves (Phaseolus vulgaris) are infested with about 20 mixed age individuals on the lower leaf side using clip cages. 1 day after the infestation, the upper side of the leaves is treated with the test solution by painting. 5 days later, samples are checked for mortality.

[8] = test system: Myzus persicae (green peach aphid); assay: Example B17: activity against Myzus persicae on sprayed pepper plants (feeding/residual contact); assay type: in vivo; details: 144 h, infested pepper plants sprayed, 6 days
[9] = test system: Myzus persicae (green peach aphid); assay: Example B13: drench activity against Myzus persicae, pea seedlings in field soil; details: 168 h, read-out: drench activity (mortality)
[10] = test system: Nilaparvata lugens (brown rice planthopper); assay: Example B8: activity against Nilaparvata lugens, sprayed rice seedlings (larvicide, feeding/contact); details: in Oryza sativa, read-out: activity (mortality, growth regulation, effects on F1 generation)
[11] = test system: Myzus persicae (green peach aphid); assay: Example B2: activity against Myzus persicae, pea seedling roots in test solution (systemic/feeding, curative); details: 144 h, read-out: activity (mortality)
[12] = test system: Myzus persicae (green peach aphid); assay: Example B1: activity against Myzus persicae, sprayed sunflower leaf discs (feeding/residual contact, preventive); details: foliar, 144 h, read-out: activity (mortality)
[13] = test system: Aonidiella Aurantii (red scale); assay: Example B12: activity against Aonidiella aurantii, dipped potato tubers; assay type: in vivo; details: 6-8 weeks after application, read-out: activity (number of crawlers of the next generation)
Text: Activity Against Aonidiella Aurantii (Red Scale)
Treatment of potato tubers by dipping the in the test solution. One day later, tubers are infested with about 50 crawlers. 6-8 weeks after application samples are checked for the number of crawlers of the next generation (compared to the non treated samples).

[14] = test system: Thrips tabaci (onion thrips); assay: Example B3: activity against Thrips tabaci, sprayed sunflower leaf discs (feeding/residual contact, preventive); assay type: in vivo; details: foliar, 144 h, mixed population, 6 days
Text: Activity Against Thrips tabaci (Onion Thrips)
(Mixed Population, Feeding/Residual Contact Activity, Preventive)

[15] = test system: Tetranychus urticae (two-spotted spider mite); assay: Example B4: activity against Tetranychus urticae, sprayed bean leaf discs (feeding/residual contact, preventive); details: foliar, 192 h, read-out: activity (egg, larval and adult mortality)
[16] = infestation 0 days after application
[17] = re-infestation 7 days after application
[18] = re-infestation 14 days after application
[19] = re-infestation 21 days after application
[20] = re-infestation 28 days after application

In the case of CCOC(=O)OC1=C(c2c(C)cc(C)cc2C)C(=O)NC12CCN(OC)CC2 [A18, reference compound], the “Mortality (%) xx days after application (drench, systemic action, persistence)” value (“Mortality (%) xx days after application” for short) [1, 16] is reported as 100%, the “Mortality (%) xx days after application” value [1, 17] is reported as 100% and the “Mortality (%) xx days after application” value [1, 18] is reported as 98%. For the same molecule, the “Mortality (%) xx days after application” value [1, 19] was 95%, the “Mortality (%) xx days after application” value [1, 20] was 95% and the “plant damage on pepper plants / plant compatibility (in words)” value [2] was “damages these to an untolerable high extend”.

CCOC(=O)OC1=C(c2cc(C)ccc2C)C(=O)N(OCOC)C12CCN(OC)CC2 [P1.2, Carbonic acid 3-(2,5-dimethyl-phenyl)-8-methoxy-1-methoxy-methoxy-2-oxo-1,8-diaza-spiro[4.5]dec-3-en-4-yl ester ethyl ester] was tested, and the mortality at 400 ppm [3] was > 80%, the pest or weed control at 200 ppm [4] was > 80% and the mortality at 400 ppm [5] was > 80%. The mortality at 400 ppm [6] was > 80%, the mortality at 400 ppm [7] was > 80% and the mortality at 200 ppm [8] was ≥ 80%. The mortality at 25 ppm [9] was > 80%, the mortality at 400 ppm [10] was > 80% and the mortality at 400 ppm [11] was > 80%. For the same molecule, the mortality at 400 ppm [12] was > 80%.

In the case of CCOC(=O)OC1=C(c2c(C)cc(C)cc2C)C(=O)N(OCOC)C12CCN(OC)CC2 [P1.7, carbonic acid ethyl ester 8-methoxy-1-methoxymethoxy-2-oxo-3-(2,4,6-trimethyl-phenyl)-1,8-diaza-spiro[4.5]dec-3-en-4-yl ester], the mortality at 400 ppm [3] is reported as > 80%, the pest or weed control at 200 ppm [4] is reported as > 80% and the mortality at 400 ppm [7] is reported as > 80%. The pest or weed control at 200 ppm [13] was > 80%, the “Mortality (%) xx days after application” value [1, 16] was 99% and the “Mortality (%) xx days after application” value [1, 17] was 100%. The “Mortality (%) xx days after application” value [1, 18] was 98%, the “Mortality (%) xx days after application” value [1, 19] was 98% and the “Mortality (%) xx days after application” value [1, 20] was 97%. For the same molecule, the “insecticidal action on Myzus persicae compared with state-of-the-art compound A18 (in words)” value ([1]; drench application on pepper plants, summary of Table B15) was “very similar to the action of the compound of the state of the art”, the “plant damage on pepper plants / plant compatibility (in words)” value [2] was “no plant damage at all” and the mortality at 200 ppm [8] was ≥ 80%. The mortality at 25 ppm [9] was > 80%, the mortality at 400 ppm [10] was > 80% and the mortality at 400 ppm [11] was > 80%. For the same molecule, the mortality at 400 ppm [12] was > 80%.

In the case of CCOC(=O)OC1=C(c2c(C)cc(C)cc2C)C(=O)N(OC)C12CCN(OC)CC2 [P1.8], the mortality at 400 ppm [14] is reported as > 80%, the mortality at 400 ppm [3] is reported as > 80% and the pest or weed control at 200 ppm [4] is reported as > 80%. The mortality at 400 ppm [5] was > 80%, the mortality at 400 ppm [6] was > 80% and the mortality at 400 ppm [7] was > 80%. The pest or weed control at 200 ppm [13] was > 80%, the mortality at 200 ppm [8] was ≥ 80% and the mortality at 25 ppm [9] was > 80%. For the same molecule, the mortality at 400 ppm [10] was > 80%, the mortality at 400 ppm [11] was > 80% and the mortality at 400 ppm [12] was > 80%. For the same molecule, the mortality at 400 ppm [15] was > 80%.
